The source of these data is patent US8143263B2, “Therapeutic agents” (Astrazeneca AB, priority 2008, dated 2012).

For orientation: EC50 means the concentration at which the effect is half-maximal.

The assay has as its target T1, recombinant human pancreatic GLK (Homo sapiens, UniProt P35557).
T1 sequence (P35557 1-465): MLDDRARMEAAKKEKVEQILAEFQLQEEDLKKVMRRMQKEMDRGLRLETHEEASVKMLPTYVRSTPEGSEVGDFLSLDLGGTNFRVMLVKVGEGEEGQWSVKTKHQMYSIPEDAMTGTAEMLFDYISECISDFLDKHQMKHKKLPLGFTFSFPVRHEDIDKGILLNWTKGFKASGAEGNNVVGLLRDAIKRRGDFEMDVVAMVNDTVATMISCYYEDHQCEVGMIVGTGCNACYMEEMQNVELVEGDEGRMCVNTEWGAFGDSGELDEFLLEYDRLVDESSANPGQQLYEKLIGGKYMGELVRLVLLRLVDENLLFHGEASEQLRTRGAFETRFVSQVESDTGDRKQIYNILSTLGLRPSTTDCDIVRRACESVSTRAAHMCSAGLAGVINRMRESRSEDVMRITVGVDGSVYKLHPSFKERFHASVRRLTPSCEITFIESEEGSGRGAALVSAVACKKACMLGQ
In words: biochemical.
On to `Cc1ccc(NC(=O)[C@H](COC(C)C)Oc2ncnc3c2cnn3-c2cnccc2C)nc1` [Example 148, (2S)-3-isopropoxy-N-(5-methyl-2-pyridyl)-2-[1-(4-methyl-3-pyridyl)pyrazolo[4,5-e]pyrimidin-4-yl]oxy-propanamide], for which the half-maximal effective concentration (EC50) is 930 nM.

Take `Cc1cnc(NC(=O)[C@H](COC2CCC2)Oc2ncnc3c2cnn3-c2cccnc2C)cn1` [Example 149, (2S)-3-cyclobutoxy-N-(5-methylpyrazin-2-yl)-2-(1-(2-methylpyridin-3-yl)-1H-pyrazolo[3,4-d]pyrimidin-4-yloxy)propanamide]: the half-maximal effective concentration (EC50) came to 660 nM. Turning to `CCOC[C@H](Oc1ncnc2c1cnn2-c1cccnc1C)C(=O)Nc1ccc(Cl)cn1` [Example 150, (2S)—N-(5-chloropyridin-2-yl)-3-ethoxy-2-(1-(2-methylpyridin-3-yl)-1H-pyrazolo[3,4-d]pyrimidin-4-yloxy)propanamide], the EC50 was 1000 nM. For the compound `COC[C@H](C)OC[C@H](Oc1ncnc2c1cnn2-c1ccccc1Cl)C(=O)Nc1ccc(C)cn1` [Example 152, (2S)-2-(1-(2-chlorophenyl)-1H-pyrazolo[3,4-d]pyrimidin-4-yloxy)-3-((S)-1-methoxypropan-2-yloxy)-N-(5-methylpyridin-2-yl)propanamide], the half-maximal effective concentration (EC50) turned out to be 490 nM. For `COC[C@@H](C)OC[C@H](Oc1ncnc2c1cnn2-c1ccccc1Cl)C(=O)Nc1ccc(C)cn1` [Example 153, (2S)-2-(1-(2-chlorophenyl)-1H-pyrazolo[3,4-d]pyrimidin-4-yloxy)-3-((R)-1-methoxypropan-2-yloxy)-N-(5-methylpyridin-2-yl)propanamide], the EC50 worked out at 280 nM. Turning to `COC[C@@H](C)OC[C@H](Oc1ncnc2c1cnn2-c1ncccc1Cl)C(=O)Nc1ccc(C)cn1` [Example 154, (2S)-2-(1-(3-chloropyridin-2-yl)-1H-pyrazolo[3,4-d]pyrimidin-4-yloxy)-3-((R)-1-methoxypropan-2-yloxy)-N-(5-methylpyridin-2-yl)propanamide], the EC50 was determined as 1200 nM. For `COC[C@@H](C)OC[C@H](Oc1ncnc2c1cnn2-c1ccccc1Cl)C(=O)Nc1cnc(C)cn1` [Example 155, (2S)-2-(1-(2-chlorophenyl)-1H-pyrazolo[3,4-d]pyrimidin-4-yloxy)-3-((R)-1-methoxypropan-2-yloxy)-N-(5-methylpyrazin-2-yl)propanamide], the concentration giving a half-maximal response (EC50) worked out at 760 nM. To `Cc1cnc(NC(=O)[C@H](COC2CCC2)Oc2ncnc3c2cnn3-c2ccccc2Cl)cn1` [Example 156, (2S)-2-(1-(2-chlorophenyl)-1H-pyrazolo[3,4-d]pyrimidin-4-yloxy)-3-cyclobutoxy-N-(5-methylpyrazin-2-yl)propanamide] belongs 87 nM. Regarding `Cc1cnc(NC(=O)[C@H](COC2CCC2)Oc2ncnc3c2cnn3-c2ncccc2Cl)cn1` [Example 157, (2S)-2-(1-(3-chloropyridin-2-yl)-1H-pyrazolo[3,4-d]pyrimidin-4-yloxy)-3-cyclobutoxy-N-(5-methylpyrazin-2-yl)propanamide], the EC50 was found to be 140 nM. Consider `Cc1ccc(NC(=O)[C@H](COC2CCC2)Oc2ncnc3c2cnn3-c2ncccc2Cl)nc1` [Example 158, (2S)-2-(1-(3-chloropyridin-2-yl)-1H-pyrazolo[3,4-d]pyrimidin-4-yloxy)-3-cyclobutoxy-N-(5-methylpyridin-2-yl)propanamide], for which the half-maximal effective concentration (EC50) is 150 nM. `CC(=O)OCC[C@H](Oc1ncnc2c1cnn2-c1ncccc1Cl)C(=O)Nc1ccc(C)cn1` [Example 159, [(3S)-3-[1-(3-chloropyridin-2-yl)pyrazolo[4,5-e]pyrimidin-4-yl]oxy-4-[(5-methylpyridin-2-yl)amino]-4-oxobutyl]acetate]: the EC50 is 850 nM. Consider `Cc1ccc(NC(=O)[C@H](COC(C)C)Oc2ncnc3c2cnn3-c2ccccc2C(F)(F)F)nc1` [Example 160, (2S)-3-isopropoxy-N-(5-methylpyridin-2-yl)-2-(1-(2-(trifluoromethyl)phenyl)-1H-pyrazolo[3,4-d]pyrimidin-4-yloxy)propanamide], for which the EC50 stood at 280 nM.
